Results on 10 compounds are retold here after ChEMBL document CHEMBL1764952, “A novel application of DDQ as electrophile in the Nenitzescu reaction” (Bioorg Med Chem, 2011).

The inhibition is how much of the control response was suppressed. The GI50 is the concentration at which growth is held to half of that of the control. In general, IC50 refers to the concentration that gives 50% inhibition.

The target of experiment [1] is T1, Casein kinase II (Homo sapiens) (UniProt P67870+P68400+P19784). Briefly: Inhibition of human recombinant CK2 using RRRDDDSDDD-EDANS peptide substrate at 10 µM by capillary electrophoresis analysis.
For the next experiment, the system named is OVCAR-5. Briefly: Antitumor activity against human OVCAR5 cells assessed as growth inhibition. In kind it is functional.
A short description of experiment [2]: Antitumor activity against human NCI-ADR-RES cells assessed as growth inhibition. In kind it is functional.
A further experiment concerns HOP-92. Briefly: Antitumor activity against human HOP92 cells assessed as growth inhibition. In kind it is functional.
In the next experiment the test system is DU-145. Briefly: Antitumor activity against human DU145 cells assessed as growth inhibition. In kind it is functional.
In another experiment the target is Casein kinase II (Homo sapiens, UniProt P19784+P67870+P68400). Briefly: Inhibition of human recombinant CK2 using RRRDDDSDDD-EDANS peptide substrate by capillary electrophoresis analysis. In kind it is protein-complex assay.
Chain of Casein kinase II (P67870 whole entry): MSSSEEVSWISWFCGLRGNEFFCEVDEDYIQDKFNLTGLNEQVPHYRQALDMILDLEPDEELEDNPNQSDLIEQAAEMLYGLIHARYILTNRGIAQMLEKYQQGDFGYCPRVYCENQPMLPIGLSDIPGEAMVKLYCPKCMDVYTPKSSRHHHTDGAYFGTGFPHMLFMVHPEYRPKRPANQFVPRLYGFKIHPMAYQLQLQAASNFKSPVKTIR
Chain of Casein kinase II (P68400 whole entry): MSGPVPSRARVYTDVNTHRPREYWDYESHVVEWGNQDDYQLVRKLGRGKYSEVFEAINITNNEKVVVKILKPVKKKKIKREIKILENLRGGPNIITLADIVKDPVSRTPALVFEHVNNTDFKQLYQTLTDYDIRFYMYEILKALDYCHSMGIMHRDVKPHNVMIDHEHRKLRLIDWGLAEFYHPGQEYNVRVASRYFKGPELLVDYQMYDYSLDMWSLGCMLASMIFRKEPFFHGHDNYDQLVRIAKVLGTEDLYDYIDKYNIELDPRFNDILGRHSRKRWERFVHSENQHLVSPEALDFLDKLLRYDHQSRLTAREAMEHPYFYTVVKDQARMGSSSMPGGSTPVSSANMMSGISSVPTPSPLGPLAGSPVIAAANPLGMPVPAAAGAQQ
Chain of Casein kinase II (P19784 whole entry): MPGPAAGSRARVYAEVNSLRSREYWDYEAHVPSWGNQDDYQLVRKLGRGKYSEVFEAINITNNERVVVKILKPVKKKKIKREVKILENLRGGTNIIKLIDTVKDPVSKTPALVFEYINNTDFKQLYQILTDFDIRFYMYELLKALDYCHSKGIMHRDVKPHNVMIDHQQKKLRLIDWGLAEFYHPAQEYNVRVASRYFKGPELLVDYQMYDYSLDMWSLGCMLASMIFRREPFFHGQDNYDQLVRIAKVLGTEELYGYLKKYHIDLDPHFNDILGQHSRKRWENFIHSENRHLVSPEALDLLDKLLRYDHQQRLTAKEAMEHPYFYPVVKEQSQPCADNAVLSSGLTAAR
For experiment [3], the target named is T1, Casein kinase II (Homo sapiens). Briefly: Inhibition of human recombinant CK2 using RRRDDDSDDD-EDANS peptide substrate at […] by capillary electrophoresis analysis. In kind it is protein-complex assay.
For another experiment, the species on record is Homo sapiens. Briefly: Antitumor activity against human lymphoma assessed as growth inhibition at 27 uM. In kind it is functional.

Regarding `CC(C)=CC(=O)c1oc2c(Cl)c(Cl)c(O)c(C#N)c2c1N`, in experiment [1], the inhibition was over 96%.

Consider `CCOC(=O)C1=C(C)N(Cc2ccc(Cl)cc2Cl)C(=N)C12C(=O)C(Cl)=C(Cl)C(O)=C2C#N` (centres undefined), for which the GI50 in the experiment with OVCAR-5 is 2690 nM; in experiment [2], 191 nM.

Regarding `CCOC(=O)C1=C(c2ccccc2)N(c2ccc(OC)cc2)C(=N)C12C(=O)C(Cl)=C(Cl)C(O)=C2C#N` (centres undefined), in the experiment with HOP-92, the GI50 is 550 nM.

Take `CCOC(=O)c1oc2ccc(OC(C)=O)c(CNC(C)=O)c2c1NC(C)=O`: the inhibition in experiment [1] came to 0%.

On to `CCOC(=O)C1=C(C)N(c2ccc(Cl)cc2)C(=N)C12C(=O)C(Cl)=C(Cl)C(O)=C2C#N` (centres undefined), for which the GI50 in the experiment on DU-145 was 339 nM.

For the compound `CCOC(=O)c1oc2c(Cl)c(Cl)c(OC(C)=O)c(C#N)c2c1N`, the inhibition in experiment [1] was found to be 69%. In addition, at Casein kinase II, the IC50 is 2400 nM.

As to `CCOC(=O)C1=C(C)N(c2ccc(F)cc2F)C(=N)C12C(=O)C(Cl)=C(Cl)C(O)=C2C#N` (centres undefined), the GI50 with HOP-92 is 1780 nM.

For the compound `CCOC(=O)C1=C(C)N(Cc2ccc(Cl)cc2Cl)/C(=N\C(C)=O)C12C(=O)C(Cl)=C(Cl)C(OC(C)=O)=C2C#N` (centres undefined), the inhibition in experiment [3] turned out to be 0%.

Turning to `CC(C)=CC(=O)c1coc2ccc(O)cc12`, the inhibition in experiment [1] amounted to 39%.

Turning to `CC(=O)Oc1c(Cl)c(Cl)c2oc(C(=O)C=C(C)C)c(N)c2c1C#N`, the growth inhibition (GI) in the experiment filed under Homo sapiens is over 99%. Further, the inhibition in experiment [1] was 93%. Moreover, the IC50 on Casein kinase II was 200 nM.
